{"source": "ChEMBL document CHEMBL1126440", "about": "“Design and synthesis of azabicyclic muscarinic agonists incorporating an oxime ether functionality” (Bioorg Med Chem Lett, 1992)", "key": {"[1]": {"molecular_target": "Muscarinic acetylcholine receptor", "test": "Displacement of [3H]quinuclidinyl benzilate(QNB) binding from muscarinic receptors of rat cerebral cortex; 1400-2900", "type": "tissue-based"}, "[2]": {"molecular_target": "Muscarinic acetylcholine receptor", "test": "Displacement of [3H]- oxotremorine-M (OXO-M) binding from muscarinic receptors of rat cerebral cortex; 66-83", "type": "tissue-based"}, "[3]": {"molecular_target": "Muscarinic acetylcholine receptor (Rattus norvegicus) (UniProt P08482+P08483+P08485+P08911+P10980)", "test": "Relative affinity of oxotremorine-M (OXO-M) and [3H]quinuclidinyl benzilate (QNB) for muscarinic receptors", "type": "protein assay"}, "[4]": {"molecular_target": "Muscarinic acetylcholine receptor", "test": "Displacement of [3H]quinuclidinyl benzilate(QNB) binding from muscarinic receptors of rat cerebral cortex; 4800-6300", "type": "tissue-based"}, "[5]": {"molecular_target": "Muscarinic acetylcholine receptor", "test": "Displacement of [3H]- oxotremorine-M (OXO-M) binding from muscarinic receptors of rat cerebral cortex; 44-170", "type": "tissue-based"}, "[6]": {"molecular_target": "Muscarinic acetylcholine receptor", "test": "Displacement of [3H]- oxotremorine-M (OXO-M) binding from muscarinic receptors of rat cerebral cortex; 230-335", "type": "tissue-based"}, "[7]": {"molecular_target": "Muscarinic acetylcholine receptor", "test": "Displacement of [3H]quinuclidinyl benzilate(QNB) binding from muscarinic receptors of rat cerebral cortex; 2700-3000", "type": "tissue-based"}, "[8]": {"molecular_target": "Muscarinic acetylcholine receptor", "test": "Displacement of [3H]quinuclidinyl benzilate(QNB) binding from muscarinic receptors of rat cerebral cortex; 3400-10000", "type": "tissue-based"}, "[9]": {"molecular_target": "Muscarinic acetylcholine receptor", "test": "Displacement of [3H]- oxotremorine-M (OXO-M) binding from muscarinic receptors of rat cerebral cortex; 65-110", "type": "tissue-based"}, "[10]": {"molecular_target": "Muscarinic acetylcholine receptor", "test": "Displacement of [3H]- oxotremorine-M (OXO-M) binding from muscarinic receptors of rat cerebral cortex; 205-310", "type": "tissue-based"}, "[11]": {"molecular_target": "Muscarinic acetylcholine receptor", "test": "Displacement of [3H]quinuclidinyl benzilate(QNB) binding from muscarinic receptors of rat cerebral cortex", "type": "tissue-based"}, "[12]": {"molecular_target": "Muscarinic acetylcholine receptor", "test": "Displacement of [3H]quinuclidinyl benzilate(QNB) binding from muscarinic receptors of rat cerebral cortex; 36000-40000", "type": "tissue-based"}, "[13]": {"molecular_target": "Muscarinic acetylcholine receptor", "test": "Displacement of [3H]- oxotremorine-M (OXO-M) binding from muscarinic receptors of rat cerebral cortex; 90-155", "type": "tissue-based"}, "[14]": {"molecular_target": "Muscarinic acetylcholine receptor", "test": "Displacement of [3H]quinuclidinyl benzilate(QNB) binding from muscarinic receptors of rat cerebral cortex; 12500-16500", "type": "tissue-based"}, "[15]": {"molecular_target": "Muscarinic acetylcholine receptor", "test": "Displacement of [3H]- oxotremorine-M (OXO-M) binding from muscarinic receptors of rat cerebral cortex; 50-65", "type": "tissue-based"}, "[16]": {"molecular_target": "Muscarinic acetylcholine receptor", "test": "Displacement of [3H]quinuclidinyl benzilate(QNB) binding from muscarinic receptors of rat cerebral cortex; 3400-8000", "type": "tissue-based"}, "[17]": {"molecular_target": "Muscarinic acetylcholine receptor", "test": "Displacement of [3H]- oxotremorine-M (OXO-M) binding from muscarinic receptors of rat cerebral cortex; 155-265", "type": "tissue-based"}, "[18]": {"tested_on": "Rattus norvegicus", "test": "Effective dose required to cause 50% fall in mean blood pressure (BP) […] of urethane anesthetized rats after iv administration of compound", "type": "functional"}, "[19]": {"test": "Ratio of change in mean blood pressure (BP) to that of mean power spectrum of EEG", "type": "functional"}, "[20]": {"molecular_target": "Muscarinic acetylcholine receptor", "test": "Displacement of [3H]- oxotremorine-M (OXO-M) binding from muscarinic receptors of rat cerebral cortex; 12-62", "type": "tissue-based"}, "[21]": {"molecular_target": "Muscarinic acetylcholine receptor", "test": "Displacement of [3H]quinuclidinyl benzilate(QNB) binding from muscarinic receptors of rat cerebral cortex; 1400-2700", "type": "tissue-based"}, "[22]": {"tested_on": "Rattus norvegicus", "test": "Dose required to produce a change in the mean power spectrum of EEG equivalent to that of a standard dose (0.32 mg/Kg i.v.) of arecoline after iv administration of compound", "type": "functional"}, "[23]": {"molecular_target": "Muscarinic acetylcholine receptor", "test": "Displacement of [3H]- oxotremorine-M (OXO-M) binding from muscarinic receptors of rat cerebral cortex", "type": "tissue-based"}, "[24]": {"molecular_target": "Muscarinic acetylcholine receptor", "test": "Displacement of [3H]quinuclidinyl benzilate(QNB) binding from muscarinic receptors of rat cerebral cortex; 2500-5600", "type": "tissue-based"}, "[25]": {"molecular_target": "Muscarinic acetylcholine receptor", "test": "Displacement of [3H]- oxotremorine-M (OXO-M) binding from muscarinic receptors of rat cerebral cortex; 44-48", "type": "tissue-based"}, "[26]": {"molecular_target": "Muscarinic acetylcholine receptor", "test": "Displacement of [3H]quinuclidinyl benzilate(QNB) binding from muscarinic receptors of rat cerebral cortex; 2600-4400", "type": "tissue-based"}, "[27]": {"molecular_target": "Muscarinic acetylcholine receptor", "test": "Displacement of [3H]- oxotremorine-M (OXO-M) binding from muscarinic receptors of rat cerebral cortex; 83-128", "type": "tissue-based"}, "[28]": {"molecular_target": "Muscarinic acetylcholine receptor", "test": "Displacement of [3H]quinuclidinyl benzilate(QNB) binding from muscarinic receptors of rat cerebral cortex; 6200-9000", "type": "tissue-based"}, "[29]": {"molecular_target": "Muscarinic acetylcholine receptor", "test": "Displacement of [3H]- oxotremorine-M (OXO-M) binding from muscarinic receptors of rat cerebral cortex; 10-30", "type": "tissue-based"}, "[30]": {"molecular_target": "Muscarinic acetylcholine receptor", "test": "Displacement of [3H]quinuclidinyl benzilate(QNB) binding from muscarinic receptors of rat cerebral cortex; 2000-4800", "type": "tissue-based"}}}
{"compound": "CO/N=C(\\C)C1CN2CCC1CC2", "note": "(stereo not drawn)", "values": [{"measurement": "IC50", "setting": "[1]", "value": 2, "unit": "µM"}, {"measurement": "IC50", "setting": "[2]", "value": 0.069, "unit": "µM"}, {"measurement": "Ratio", "setting": "[3]", "value": 29}]}
{"compound": "CO/N=C/C12CCCN(CC1)C2", "note": "(stereo not drawn)", "values": [{"measurement": "IC50", "setting": "[4]", "value": 5.2, "unit": "µM"}, {"measurement": "IC50", "setting": "[5]", "value": 0.06, "unit": "µM"}, {"measurement": "Ratio", "setting": "[3]", "value": 87}]}
{"compound": "CCCO/N=C/[C@H]1CN2CC[C@H]1C2", "values": [{"measurement": "IC50", "setting": "[6]", "value": 0.278, "unit": "µM"}, {"measurement": "IC50", "setting": "[7]", "value": 2.9, "unit": "µM"}, {"measurement": "Ratio", "setting": "[3]", "value": 10}]}
{"compound": "CO/N=C/C1CN2CCC1CC2", "note": "(stereo not drawn)", "values": [{"measurement": "IC50", "setting": "[8]", "value": 5.8, "unit": "µM"}, {"measurement": "IC50", "setting": "[9]", "value": 0.095, "unit": "µM"}, {"measurement": "Ratio", "setting": "[3]", "value": 61}]}
{"compound": "CCCCO/N=C/[C@H]1CN2CC[C@H]1C2", "values": [{"measurement": "IC50", "setting": "[10]", "value": 0.252, "unit": "µM"}, {"measurement": "IC50", "setting": "[11]", "value": 3.6, "unit": "µM"}, {"measurement": "Ratio", "setting": "[3]", "value": 14}]}
{"compound": "CO/N=C/C12CCN(CC1)C2", "values": [{"measurement": "IC50", "setting": "[12]", "value": 38, "unit": "µM"}, {"measurement": "IC50", "setting": "[13]", "value": 0.118, "unit": "µM"}, {"measurement": "Ratio", "setting": "[3]", "value": 321}]}
{"compound": "CO/N=C(\\C)C12CCN(CC1)C2", "values": [{"measurement": "IC50", "setting": "[14]", "value": 14, "unit": "µM"}, {"measurement": "IC50", "setting": "[15]", "value": 0.055, "unit": "µM"}, {"measurement": "Ratio", "setting": "[3]", "value": 255}]}
{"compound": "CC/C(=N\\OC)[C@H]1CN2CC[C@H]1C2", "values": [{"measurement": "IC50", "setting": "[16]", "value": 5.2, "unit": "µM"}, {"measurement": "IC50", "setting": "[17]", "value": 0.208, "unit": "µM"}, {"measurement": "Ratio", "setting": "[3]", "value": 25}]}
{"compound": "COC(=O)C1CN2CCC1CC2", "note": "(stereo not drawn)", "values": [{"measurement": "Ratio", "setting": "[3]", "value": 48}]}
{"compound": "C#CCO/N=C/[C@H]1CN2CC[C@H]1C2", "values": [{"measurement": "ED50", "setting": "[18]", "value": 0.17, "unit": "mg/kg"}, {"measurement": "Ratio", "setting": "[19]", "value": 10.6}, {"measurement": "IC50", "setting": "[20]", "value": 0.025, "unit": "µM"}, {"measurement": "IC50", "setting": "[21]", "value": 1.95, "unit": "µM"}, {"measurement": "ED Arec", "setting": "[22]", "value": 0.016, "unit": "mg/kg"}, {"measurement": "Ratio", "setting": "[3]", "value": 78}]}
{"compound": "CCO/N=C/[C@H]1CN2CC[C@H]1C2", "values": [{"measurement": "ED50", "setting": "[18]", "value": "> 1.8", "unit": "mg/kg"}, {"measurement": "IC50", "setting": "[23]", "value": 0.16, "unit": "µM"}, {"measurement": "Ratio", "setting": "[19]", "value": ">7.8"}, {"measurement": "IC50", "setting": "[24]", "value": 3.7, "unit": "µM"}, {"measurement": "ED Arec", "setting": "[22]", "value": 0.23, "unit": "mg/kg"}, {"measurement": "Ratio", "setting": "[3]", "value": 23}]}
{"compound": "CO/N=C(\\C)C12CCCN(CC1)C2", "note": "(stereo not drawn)", "values": [{"measurement": "IC50", "setting": "[25]", "value": 0.046, "unit": "µM"}, {"measurement": "IC50", "setting": "[26]", "value": 3.4, "unit": "µM"}, {"measurement": "Ratio", "setting": "[3]", "value": 74}]}
{"compound": "CO/N=C(\\C)[C@H]1CN2CC[C@H]1C2", "values": [{"measurement": "IC50", "setting": "[27]", "value": 0.099, "unit": "µM"}, {"measurement": "Ratio", "setting": "[3]", "value": 76}, {"measurement": "IC50", "setting": "[28]", "value": 7.5, "unit": "µM"}]}
{"compound": "CO/N=C/[C@H]1CN2CC[C@H]1C2", "values": [{"measurement": "ED50", "setting": "[18]", "value": 0.0031, "unit": "mg/kg"}, {"measurement": "Ratio", "setting": "[19]", "value": 1.5}, {"measurement": "IC50", "setting": "[29]", "value": 0.015, "unit": "µM"}, {"measurement": "IC50", "setting": "[30]", "value": 3.1, "unit": "µM"}, {"measurement": "ED Arec", "setting": "[22]", "value": 0.0021, "unit": "mg/kg"}]}
